For data set [1], the system named is Renilla luciferase HCV replicon cells (2209-23). Put plainly: Renilla luciferase Assay (HCV replicon). It counts as cell-based, HCV; human hepatoma Huh7 cells. Particulars: 72 h; replicon cell line 2209-23, three days incubation; read-out: R. luciferase Activity IC50.

pIC50: −log10 of the molar value.

Usually pIC50 stands for −log10 of the IC50, conventionally taken in molar units. Turning to `CC(C)(C)[C@H]1C(O)=C(C2=NS(=O)(=O)c3c(CNS(N)(=O)=O)cccc32)C(=O)N1Cc1ccc(F)cc1` [II-41, Amino-sulfonic acid {3-[(S)-5-tert-butyl-1-(4-fluoro-benzyl)-4-hydroxy-2-oxo-2,5-dihydro-1H-pyrrol-3-yl]-1,1-dioxo-1H-1λ^6-benzo[d]isothiazol-7-ylmethyl}-amide], in data set [1], the pIC50 is 7.24.

One may read the melting point as the temperature, or range, at which the solid turns liquid. As for `CN(C)C(=O)COc1cccc2c1S(=O)(=O)N=C2C1=C(O)[C@H](C(C)(C)C)N(Cc2ccc(F)cc2)C1=O`, the melting point was 137 °C. Same read-out and setting: with `CNC(=O)CN(Cc1cccc2c1S(=O)(=O)N=C2C1=C(O)[C@H](C(C)(C)C)N(Cc2ccc(F)cc2)C1=O)C(C)=O` the figure was 150 to 154 °C; with `CC(C)(C)[C@H]1C(O)=C(C2=NS(=O)(=O)c3ccccc32)C(=O)N1CC1CCC1`, 69 to 78 °C. Consider `CC(C)(C)[C@H]1C(O)=C(C2=NS(=O)(=O)c3c(NCC(N)=O)cccc32)C(=O)N1Cc1ccc(F)cc1.N`, for which the melting point is over 250 °C.

As to `CC(C)(C)[C@H]1C(O)=C(C2=NS(=O)(=O)c3ccccc32)C(=O)N1Cc1ccc(F)c(C#N)c1`, the melting point fell in the range of 105 to 112 °C.

For the molecule `CC(C)(C)[C@H]1C(O)=C(C2=NS(=O)(=O)c3c2cccc3-c2cccnc2)C(=O)N1Cc1ccc(F)cc1`, the melting point was over 275 °C. As for `CN(C)S(=O)(=O)NCc1cccc2c1S(=O)(=O)N=C2C1=C(O)[C@H](C(C)(C)C)N(Cc2ccc(F)cc2)C1=O`, the melting point was 102 to 115 °C. On the same count and under the same terms, with `CC(=O)N1CCN(S(=O)(=O)NCc2cccc3c2S(=O)(=O)N=C3C2=C(O)[C@H](C(C)(C)C)N(Cc3ccc(F)cc3)C2=O)CC1` the figure was 248 to 260 °C; with `CC(C)[C@H]1C(O)=C(C2=NS(=O)(=O)c3ccccc32)C(=O)N1Cc1ccc(F)cc1`, 95 to 110 °C; with `COc1cc(CN2C(=O)C(C3=NS(=O)(=O)c4c(CNS(C)(=O)=O)cccc43)=C(O)[C@@H]2C(C)(C)C)ccc1F`, 121 to 126 °C.

The molecule `CC(=O)Nc1cccc(-c2cccc3c2S(=O)(=O)N=C3C2=C(O)[C@H](C(C)(C)C)N(Cc3ccc(F)cc3)C2=O)c1` gave a melting point of 255 to 260 °C. The same measure, in the same setting: with `Cc1cc(CN2C(=O)C(C3=NS(=O)(=O)c4c(CNS(=O)(=O)N5CCC(S(C)(=O)=O)C5)cccc43)=C(O)[C@@H]2C(C)(C)C)ccc1F` (stereo partly shown) the figure was 124 to 137 °C.

As for `COc1cccc2c1S(=O)(=O)N=C2C1=C(O)[C@H](C(C)(C)C)N(Cc2ccc(F)cc2)C1=O`, the melting point lay within 224 to 235 °C. Regarding `CC(C)(C)[C@H]1C(O)=C(C2=NS(=O)(=O)c3ccccc32)C(=O)N1Cc1ccc(F)c(Br)c1`, the melting point was in the range of 114 to 119 °C. Same read-out and setting: with `COc1ccc(-c2cccc3c2S(=O)(=O)N=C3C2=C(O)[C@H](C(C)(C)C)N(Cc3ccc(F)cc3)C2=O)cn1` the figure was 185 to 190 °C; with `CC(C)CCc1nc(C2=NS(=O)(=O)c3ccccc32)c(O)c2ccccc12`, 206 to 209 °C. As to `CC(=O)NC1CCN(S(=O)(=O)NCc2cccc3c2S(=O)(=O)N=C3C2=C(O)[C@H](C(C)(C)C)N(Cc3ccc(F)c(C)c3)C2=O)C1` (stereo partly shown), the melting point lay within 239 to 259 °C.

`CC(C)COc1cccc2c1S(=O)(=O)N=C2C1=C(O)[C@H](C(C)(C)C)N(Cc2ccc(F)cc2)C1=O` returned a melting point of 99 to 106 °C. The same measure, in the same setting: with `Cc1cc(CN2C(=O)C(C3=NS(=O)(=O)c4c(CNS(=O)(=O)N5CCC(N)C5)cccc43)=C(O)[C@@H]2C(C)(C)C)ccc1F.O=C(O)C(F)(F)F` (stereo partly shown) the figure was 128 to 134 °C; with `CC[C@H](C)[C@H]1C(O)=C(C2=NS(=O)(=O)c3ccccc32)C(=O)N1Cc1ccc(F)cc1`, 155 to 160 °C; with `O=S1(=O)N=C(c2nc(Cc3ccc(F)cc3)c3ccccc3c2O)c2cccc(-c3cccc(F)c3)c21`, over 275 °C. Turning to `CC(C)(C)[C@H]1C(O)=C(C2=NS(=O)(=O)c3c2cccc3-c2cnc(=O)[nH]c2)C(=O)N1Cc1ccc(F)cc1`, the melting point was over 260 °C.

Take `Cc1cccc(-c2cccc3c2S(=O)(=O)N=C3c2nc(Cc3ccc(F)cc3)c3ccccc3c2O)c1`: the melting point was 228 to 230 °C. The same measure, in the same setting: with `CC(C)(C)[C@H]1C(O)=C(C2=NS(=O)(=O)c3c(CNS(=O)(=O)c4cccs4)cccc32)C(=O)N1Cc1ccc(F)cc1` the figure was 175 to 192 °C; with `CC(C)(C)[C@H]1C(O)=C(C2=NS(=O)(=O)c3ccccc32)C(=O)N1Cc1ccccc1`, 170 to 179 °C; with `CN(C)C(=O)CNc1cccc2c1S(=O)(=O)N=C2C1=C(O)[C@H](C(C)(C)C)N(Cc2ccc(F)cc2)C1=O`, 185 to 190 °C. On the same count and under the same terms, with `CC(C)(C)[C@H]1C(O)=C(C2=NS(=O)(=O)c3ccccc32)C(=O)N1Cc1ccc(F)c(C2CC2)c1` the figure was 71 to 85 °C; with `CC(C)(C)[C@H]1C(O)=C(C2=NS(=O)(=O)c3c(CNS(=O)(=O)C4CC4)cccc32)C(=O)N1Cc1ccc(F)cc1`, 102 to 105 °C. Take `Cc1cc(CN2C(=O)C(C3=NS(=O)(=O)c4c(CNS(C)(=O)=O)cccc43)=C(O)C2c2ccc(F)cc2)ccc1F` (stereo not shown): the melting point is over 250 °C. On the same count and under the same terms, with `CC(C)(C)[C@H]1C(O)=C(C2=NS(=O)(=O)c3c(CN4CCCS4(=O)=O)cccc32)C(=O)N1Cc1ccc(F)cc1` the figure was 224 to 230 °C; with `O=C1C(C2=NS(=O)(=O)c3ccccc32)=C(O)[C@H](Cc2ccccc2)N1Cc1ccc(F)cc1`, 85 to 92 °C; with `CC(C)(C)[C@H]1C(O)=C(C2=NS(=O)(=O)c3c(CNCC(N)=O)cccc32)C(=O)N1Cc1ccc(F)cc1`, 118 to 124 °C. Same read-out and setting: with `CC(C)(C)[C@H]1C(O)=C(C2=NS(=O)(=O)c3c(CNS(C)(=O)=O)cccc32)C(=O)N1Cc1ccc(F)c(Br)c1` the figure was 138 to 159 °C; with `Cc1ccc(CN2C(=O)C(C3=NS(=O)(=O)c4ccccc43)=C(O)[C@@H]2C(C)(C)C)cc1`, 93 to 107 °C; with `CC(C)(C)[C@H]1C(O)=C(C2=NS(=O)(=O)c3c2cccc3-c2ccc(=O)[nH]c2)C(=O)N1Cc1ccc(F)cc1`, over 275 °C. On to `O=C1C(C2=NS(=O)(=O)c3ccccc32)=C(O)[C@H](c2ccccc2)N1Cc1ccc(F)cc1`, for which the melting point was in the range of 145 to 155 °C. `CNC(=O)CNCc1cccc2c1S(=O)(=O)N=C2C1=C(O)[C@H](C(C)(C)C)N(Cc2ccc(F)cc2)C1=O` came in with a melting point of 175 to 180 °C. Same read-out and setting: with `CC(C)(C)[C@H]1C(O)=C(C2=NS(=O)(=O)c3ccccc32)C(=O)N1Cc1ccc(F)c(F)c1` the figure was 80 to 89 °C; with `CC(C)(C)[C@H]1C(O)=C(C2=NS(=O)(=O)c3ccccc32)C(=O)N1Cc1ccc(F)c(C(F)(F)F)c1`, 85 to 91 °C. In turn, `O=S1(=O)N=C(c2nc(Cc3ccc(F)cc3)c3ccc(F)cc3c2O)c2ccccc21` yielded a melting point of over 275 °C. In turn, `CNS(=O)(=O)COc1cccc2c1S(=O)(=O)N=C2C1=C(O)[C@H](C(C)(C)C)N(Cc2ccc(F)cc2)C1=O` gave a melting point of 155 to 165 °C. On the same count and under the same terms, with `CC(C)(C)[C@H]1C(O)=C(C2=NS(=O)(=O)c3c2cccc3-c2cn[nH]c2)C(=O)N1Cc1ccc(F)cc1` the figure was over 250 °C.

The values are drawn from patent US7674810B2, “1,1-dioxo-1H-1Λ6-benzo[d]isothiazol-3-yl)-4-hydroxy-1,5-dihydro-pyrrol-2-one inhibitors of HCV polymerase” (Roche Palo Alto LLC, priority 2006, dated 2010).
